Data reported in patent publication US20180289666A1, “FLAVONOLIGNANS FOR TREATMENT OF AUTOIMMUNE INFLAMMATORY DISEASES” (Macau University of Science and Technology, priority 2017, published 2018).
Like-named read-outs stand apart in the source and are kept apart here.

Assays:
[1] = tested on: key enzymes involved in lipid metabolism in liver; assay: Real-time PCR and Western blot of lipid metabolism enzymes in liver of AIA rats; assay type: in vivo, Sprague-Dawley (SD) rats
Procedure: Total RNA was isolated from the frozen liver of the AIA model using TRIzol® Reagent (Life technology, USA). mRNA was purified by binding to poly(dT) magnetic beads using Dynabeads® mRNA DIRECT™ Kit (Life technology, Norway) and reverse transcribed using SuperScript® III reverse transcriptase (Invitrogen, California, USA) as described by the manufacturer. Quantitative real-time PCR was performed using SYBR Green (Sigma-Aldrich, Louis, USA) on the ViiA™ 7 Real-Time PCR System (Applied Biosystems, FosterCity, USA). Quantitative RT-PCR analysis was performed using SYBR Green reagents and ViiA™ 7 Real-Time PCR System. Gene expression levels were calculated from cycle threshold (Ct) values and normalized with control gene GAPDH.
Liver tissue homogenates of AIA and MCD animal models were lysed in RIPA buffer (50 mM pH 7.4 Tris, 150 mM NaCl, 1% Triton X-100, 1% sodium deoxycholate, 0.1% SDS, sodium orthovanadate, sodium fluoride and EDTA) containing protease inhibitor cocktails (Roche Life Science, USA). Protein concentration was determined using the BCA protein assay kit (BIO-RAD, USA). Equal amounts of total protein were resolved using SDS-PAGE and transferred onto PVDF membranes (Millipore, Darmstadt, Germany). After incubation in a blocking solution containing with 5% (w/v) skim milk (Nestle Carnation, New Zealand) in TBST buffer (10 mM tris-buffered saline and 0.1% Tween20) for 1 h at room temperature and incubated with primary antibodies overnight at 4° C. The membranes were washed three times with 1×TBST solutions and incubated with the appropriate secondary antibodies at room temperature for 45 min, and subsequently visualized with an enhanced chemiluminescence detection kit (SuperSignal™ West Pico Chemiluminescent Substrate, Thermo Scientific, USA). β-actin was used as the loading control for the experimental data analysis.

[2] = tested on: AIA rats; assay: Radiological and histopathological examination of hind paws / ankle joints of AIA rats; assay type: in vivo, Sprague-Dawley (SD) rats
Procedure: Disease severity and progression were evaluated by measurements of both hind paw volumes with a plethysmometer chamber (Yiyan technology, Jinan, China) and body weight with a 0.1 g precision balance (Sartorius AG, Göttingen, Germany) every two or three days after arthritis induction. For evaluation the arthritic scoring, the lesions of four paws of each rat (i.e., the arthritic signs) were graded by two separate investigators with a semi-quantitative scale: 0 (normal), 4-8 (mild changes), 8-12 (moderate changes), and 12-16 (severe changes) (van Eden W., et. al., J. E. Coligan, Editor. 2001, John Wiley: New York. p. 1-11). Erythrocyte sedimentation rate (ESR) was determined with ICSH (International Council for Standardization in Hematology) selected method with little modifications at day 42. Briefly, 120 μl of blood sample was taken directly and put into 30 μl of 0.109 mol/L sodium citrate, mixed well, and then transferred into a 1.0 mm×100 mm capillary tube (West China Medical University, ChengDu, China). The tubes were held obliquely at an angle of […] and the erythrocyte sedimentation rate was recorded at 15 min. The cytokines levels including IL-1β, TNF-α, IL-17, IL-33, MMP-9, TIMP-1 and PGE2 in serum were measured using commercially available ELISA kits according to the manufacturers instructions. At the end of the experiments, rat knee images were measured (mean of three readings per knee, Meinaite digital calliper, ShangHai, China) using a IVIS Lumina XRMS Series (PerkinElmer, America) (Esser, R. E., et al., Arthritis Rheum, 1995, 38(1): p. 129-38).
For histopathological assessment, arthritic paws were collected on day 42 after X-ray check, fixed with 10% phosphate buffered saline (PBS) buffered formalin, and decalcified for 3 days in formic acid. Sections from paraffin-embedded tissue were stained with hematoxylin and eosin (H&E). The obtained plasma was stored in −70° C. for metabolomic studies. The relative organ weight ratios (such as liver index, spleen index, kidney index, lung index) were calculated by dividing the weight of each organ with the body weight.

[3] = tested on: AIA rats; settings: for ESR: day 42, read at 15 min, ± SD
[4] = AIA rats, Silybin 200 mg/kg oral, day 42

SMILES: COc1cc([C@H]2Oc3cc([C@H]4Oc5cc(O)cc(O)c5C(=O)[C@@H]4O)ccc3O[C@@H]2CO)ccc1O (stereo in doubt) [Silybin]
- expression of aP2 in the liver ([1]; AIA rats liver): reduced
- mRNA and/or protein expression of LPL, CYP7A1, and SREBP1 in liver ([1]; AIA rats liver): greatly repressed
- overexpression of SREBP1 ([1]; AIA rats liver): not modulated
- increased mRNA levels of hepatic lipogenesis genes (SREBP1, LXR, FXR) ([1]; AIA rats liver, real-time PCR): attenuated
- changes of key lipogenic enzyme in both gene and protein levels ([1]; AIA rats liver, real-time PCR and Western blot): ameliorated changes
- mRNA level of LPL in liver ([1]; AIA rats, real-time PCR, increase in the AIA model group): reversed
- cartilage and joint destruction of the arthritic joints (radiographs) ([2]; Silybin 100 mg/kg or 200 mg/kg, day 42): ameliorated
- infiltration of inflammatory cells, synovial hyperplasia ([2]; ankle joint sections, H&E): diminished
- histological grade of representative ankle joint sections ([2]; day 42, H&E, FIG. 2C (MTX; Silybin 200 mg/kg), vehicle-treated AIA grade 2/3): 0
- ESR ([3]; AIA rats, Silybin 100 mg/kg oral daily): 34.35 ± 9.25 mm
- ESR ([3]; AIA rats, Silybin 200 mg/kg oral daily): significantly (P<0.001) reduced
- ESR ([3]; AIA rats, Silybin 200 mg/kg oral daily, listed as SB): 28.09 ± 11.14 mm
- arthritis score [3, 4]: 7.60
- paw volume [3, 4]: 3.02 mL
- relative organ weight ratio (such as liver index, spleen index, kidney index, lung index) ([3]; rat, in vivo): reversed changes
